Source: PubChem BioAssay AID2305 (GlaxoSmithKline (GSK), 2010)
“And” between values parts separate entries of the source, which are not always exact repeats. Equal values may be shown once.

tested on: P. falciparum 3D7 growth, pLDH absorbance; assay: P. falciparum 3D7 growth inhibition, dose response, strain 3D7 (AID 2305)

SMILES	IC50
CCCCCCCN(Cc1ccc(OC(C)(C)C(=O)OCC)cc1)C(=O)Cc1ccc(F)cc1F	1030 nM
Nc1ncc(-c2cn[nH]c2)cc1-c1nc2ccc(F)cc2[nH]1	730 nM
CC(C)(C)c1ccc(CN2CCC(NC(=O)c3ccc(-c4cccc(F)c4)s3)CC2)cc1	1090 nM
COc1nc2c(N3CCN(CCNCc4ccc5c(n4)NC(=O)CO5)CC3)ccnc2cc1F	760 nM
CCCC(C)Nc1nc(C)cc(N[C@@H](Cc2ccccc2)C(=O)Nc2ccc(OC)cc2)n1 (some centres not stated)	1120 nM
O=C(/C=C/c1ccccc1Cl)Nc1ccc(Br)c(OCCN2CCC(O)(c3ccccc3)CC2)c1	480 nM
CN1CCN(c2ccnc3ccc(NC(=O)N(C)c4ccc(Cl)c(Cl)c4)cc23)CC1	740 nM
COc1ccc(CC(=O)NC(CCN2CCC3(CCc4ccccc43)CC2)c2ccc(Cl)c(Cl)c2)cc1 (configuration not stated)	530 nM
CCc1cccc2sc(N3CCN(C(=O)c4ccc([N+](=O)[O-])o4)CC3)nc12	770 nM
CC(=O)c1ccc(O)c(CC(O)CO)c1 (configuration not stated)	720 nM
Cc1ccc(NC(=O)c2ccc(Cl)cc2)cc1-c1ccc(C(=O)Nc2ccncc2)cc1	780 nM
Cc1cccc(-c2cccc(CNc3nc(NCCc4ccc(O)cc4)nc(N4CCNCC4)n3)c2)c1	1190 nM
O=C(c1cc(-c2ccccc2O)on1)N1CCN(C(c2ccccc2)c2ccccc2)CC1	340 nM
Fc1ccc2c(NN=Cc3ccc(Cl)cc3)ccnc2c1	750 nM
COc1ccc(-c2cnc3[nH]cc(-c4ccc(C(=O)O)cc4)c3c2)cn1	540 nM
O=C(Nc1ccccc1)N1CCOC(CCN2CCC(F)(F)CC2)(c2ccc(Cl)c(Cl)c2)C1 (configuration not stated)	190 nM
CC(C)(C)c1ccc(-c2cc3c(ccc4nc(N)nc(N)c43)[nH]2)cc1	110 nM
COc1ccc2c(NN=CC=Cc3ccccc3)ccnc2c1	770 nM
Cc1cc(=O)oc2c1ccc1oc(C(O)c3ccc(Cl)cc3)c(C)c12 (configuration not stated)	130 nM
O=C(Nc1ccc(OC2CCN(Cc3ccsc3)C2)c(Cl)c1)c1ccsc1 (configuration not stated)	1020 nM
CCCCCN=C(N)N/N=C/c1c[nH]c2ccc(OC)cc12	960 nM
c1ccc(CCNCc2ccc(-c3cccc(CNc4ccc5ncccc5c4)c3)cc2)cc1	930 nM
Cn1c2c(c3ccccc31)CN(CCC1(c3ccc(Cl)c(Cl)c3)CN(C(=O)Cc3ccccc3)CCO1)CC2 (configuration not stated)	360 nM
CCc1[nH]nc(C(=O)NC2CCN(CC3(c4ccc(OC)cc4)CCCCC3)CC2)c1C	890 nM
CCOc1ccc(CCC(=O)O)cc1OCC	1030 nM

SMILES	IC50
COc1ccc(CNCCCCCCNCCc2ccc(Cl)cc2)cc1OC	1390 nM
Cc1cccc2[nH]c(-c3ccc(-c4ccc(CNCc5ccc(CN)cc5)cc4)s3)nc12	440 nM
O=C(Nc1ccc2nc3n(c(=O)c2c1)CCCCC3)C(=O)N1CCC(Cc2ccccc2)CC1	760 nM
O=C(/C=C/c1ccc(Cl)c(Cl)c1)N1CCC(CN2CCC(Cc3c[nH]c4ccccc34)CC2)CC1	670 nM
O=C(/C=C/c1ccc(Cl)c(Cl)c1)N1CCC(CCN2CCC(c3c[nH]c4cc5c(cc34)OCO5)CC2)CC1	730 nM
Cc1nc(C)c(-c2ccc(Oc3ccc(OC(F)(F)F)cc3)cc2)c(OC(=O)c2ccc(CN(C)C)cc2)c1Cl	140 nM
O=C(Nc1ccc(OC2CCN(Cc3ccc(F)cc3)CC2)c(Cl)c1)c1ccsc1	720 nM
O=C(NC1CC1)c1cnc(N2CCCC(c3ccccc3)C2)c(Cl)c1 (configuration not stated)	800 nM
CCCNCc1ccc(-c2ccc(CN(C(=O)c3nn(-c4ccccc4)nc3C)C3CC3)cc2)nc1	210 nM
COc1cc(C)nc2ccc(NC(=O)c3ccc(C(=O)Nc4ccc5nc(C)cc(OC)c5c4)cc3)cc12	60 nM
Cc1sc(CNCCCNc2cc(=O)c3ccccc3[nH]2)c(C(F)(F)F)c1C	730 nM
COc1ccc(-c2ccc(NC(=O)c3ccc(C#N)cc3)cc2)cc1CNC(C)C	530 nM
O=C(/C=C/c1ccc(Cl)c(Cl)c1)NC1CCC(CN2CCC(c3c[nH]c4ccccc34)CC2)CC1 (configuration not stated)	230 nM
CC1(C)N=C(N)N=C(N)N1OCCCOc1cccc(C(=O)O)c1	40 nM
Cc1ccc(C(C#N)c2ccc3c(C(F)(F)F)cc(C(F)(F)F)nc3n2)cc1 (configuration not stated)	700 nM
C=C(C)COc1ccc(-c2n[nH]c(C(F)(F)F)c2-c2ccccc2OC)c(O)c1	780 nM
CC(C)NCc1ccc(-c2cccc(NC(=O)c3cccc(Cl)c3)c2)cc1	730 nM
CN1CCC(N2CCN(Cc3ccc(-c4cccc(-c5nc6ccc(F)cc6[nH]5)c4)cc3)CC2)CC1	170 nM
CC(C)(C)c1ccc(CN2CCC(NC(=O)c3ccc(-c4cccc(Cl)c4)s3)CC2)cc1	1070 nM
CCCCOc1ccc(-n2c(Nc3ccccc3)nc3cc(S(N)(=O)=O)ccc32)cc1	890 nM
CCNc1cc(C)nc(Nc2ccc(NC(=O)c3ccco3)cc2)n1	1090 nM
O=C(C=Cc1cc([N+](=O)[O-])ccc1Cl)NC1CCC(CN2CCC(c3c[nH]c4ccccc34)CC2)CC1 (configuration not stated)	740 nM
c1ccc2cc(CNCCCN3CCN(CCCNCc4ccc5ccccc5c4)CC3)ccc2c1	550 nM
NC(=O)C1CCN(Cc2cccc(-c3cccc(-c4nc5ccc(C(F)(F)F)cc5[nH]4)c3)c2)CC1	640 nM
NS(=O)(=O)c1cccc(-c2ccc3nccc(-c4cccc(S(N)(=O)=O)c4)c3c2)c1	1270 nM

SMILES	IC50
COc1ccc2nccc([C@@H](O)CN3CCC(NC(=O)CCC(=O)c4cc(C(C)(C)C)ccc4OC)CC3)c2c1	850 nM
Cc1cc2nc(-c3ccc(C(=O)NCc4cccc(F)c4)cc3)[nH]c2cc1C	960 nM
O=C(CCc1cnc[nH]1)Nc1ccc(-c2ccc(-c3nc4ccc(F)cc4[nH]3)cc2)cc1	690 nM
CCCCN(CCCC)C(=N)c1cccc2c1CCCC2	1560 nM
CCOc1ccc2nccc([C@@H](O)[C@@H]3C[C@@H]4CCN3C[C@@H]4CC)c2c1	110 nM and 610 nM
COc1cc2nc(N3CCC(CCCC4CCNCC4)CC3)nc(NCc3ccccn3)c2cc1OC	760 nM
COc1cc(Nc2nccn3c(-c4ccsc4)cnc23)cc(OC)c1OC	890 nM
CCOC(=O)c1cn(CC)c2cc(OCc3ccccc3)ccc2c1=O	950 nM
Nc1ccc2[nH]cc(C3CCN(CC4CCC(NC(=O)/C=C/c5ccccc5Cl)CC4)CC3)c2n1 (configuration not stated)	690 nM
CN(/N=C/c1ccc(Cl)cc1)c1nc(NCCc2ccc(O)cc2)nc(N2CCNCC2)n1	1350 nM
CCCCOc1ccc(/C=C/c2ccc(-c3c(C)[nH]c(C)c(Cl)c3=O)s2)cc1	400 nM
CCc1[nH]nc(C(=O)Nc2cccc(N3CCCC3)c2)c1C	1460 nM
CCN(CC)CCNC(=O)c1ccc(N=Cc2c(O)[nH]c3ccc(S(=O)(=O)Cc4c(Cl)cccc4Cl)cc23)cc1	840 nM
COc1cccc(CNC(=O)NC2CCN(c3ccnc(Nc4cc(OC)c(OC)c(OC)c4)n3)C2)c1 (configuration not stated)	710 nM
Cc1ccc(Cn2c(N3CCC(C(=O)NCc4cccs4)CC3)nc3ccccc32)cc1	750 nM
O=C(C=Cc1ccc(C(=O)Nc2ccc(C3=NCCN3)cc2)cc1)Nc1ccc(C2=NCCN2)cc1	30 nM
COC(=O)c1cccc(CNCc2ccc(-c3ccc(-c4nc5ccccc5[nH]4)s3)cc2)c1	290 nM
COc1ccc(-c2nc(NC(=O)Cc3cccc(OC)c3)sc2C)cc1	240 nM
COc1cccc2c(NN=Cc3ccccc3Cl)cc(C)nc12	210 nM
C=C(NC(=O)c1cc(C)cc(C)c1)C(=O)OC	170 nM
COc1cccc(CN2CCC(N3CCc4cc(NC(=O)c5cc(C)on5)ccc43)C2)c1OC (configuration not stated)	950 nM
CN1CCCN(Cc2ccc(-c3cccc(NC(=O)c4ccc(Cl)cc4)c3)cc2)CC1	610 nM
COC(=O)c1ccc(CC(C)NCC(O)c2ccc(C(O)CNC(C)Cc3ccc(C(=O)OC)cc3)cc2)cc1 (configuration not stated)	1030 nM
CC[C@]1(C)C[C@@H](NC(=O)NC(=O)c2ccc(OC)cc2)[C@]2(C)[C@H](C)CC[C@]3(CCC(=O)[C@H]32)[C@@H](C)[C@@H]1OC(=O)NC(=O)c1ccc(OC)cc1	990 nM
COc1ccc2ncc(F)c([C@@H](O)CN3CCC(NCc4cc5c(cn4)OCS5)CC3)c2c1	140 nM

SMILES	IC50
Nc1nc(N)c2c(ccc3ccccc32)n1	750 nM
O=[N+]([O-])c1cccc(CNCC2CCN(CCc3ccccc3)CC2)c1	780 nM
CCN(CC)CCNC(=O)c1ccc(NC(=O)c2ccc(-c3cc(NC(=O)CC4CCCC4)ccc3C)cc2)cc1	560 nM
Cc1ccccc1NC(=S)NC1CCN(CCCCCNC(=O)/C=C/c2ccc(Cl)c(Cl)c2)CC1	790 nM
Cc1ccc(CC(C)NCC(O)c2cccc(C(F)(F)F)c2)c(C)c1 (configuration not stated)	700 nM
c1ccc(CN2CCC(NCc3cccc(-c4cncc5ccccc45)c3)CC2)cc1	1360 nM
CNC(=O)C(C)N(c1ccc(Cl)cc1)c1nc(C(C)(C)C)cs1 (configuration not stated)	740 nM
O=C(N[C@@H](CC1CCCCC1)C(=O)NC1CCCCC1)c1ccc(O)c(-c2cccc(C(F)(F)F)c2)c1	750 nM
N#Cc1ccc2c(c1)CN(C1CCC(NC(=O)c3cc(-c4ccc(Cl)cc4)cs3)CC1)CCC2 (configuration not stated)	960 nM
CCc1cc2c3c(N)nc(N)nc3ccc2n1C(C)(C)C	10 nM
CC(O)C1CCCCN1C(=O)c1ccc(-c2cccc(-c3nc4ccc(F)cc4[nH]3)c2)cc1 (configuration not stated)	540 nM
CC(=O)Nc1cc(C(=O)Nc2ccc(C3=NCCN3)cc2)ccc1C(=O)Nc1ccc(C2=NCCN2)cc1	130 nM
Cc1ccc(C(O)CNc2ccnc(Nc3cccc(-c4csc(C)n4)c3)n2)cc1 (configuration not stated)	830 nM
Cc1cc(F)ccc1[C@H]1CNCCN1C(=O)N(C)C(C)(C)c1cc(C(F)(F)F)cc(C(F)(F)F)c1	590 nM
COc1cc(NCCCCCNc2cc(Cl)nc3ccccc23)nc2ccccc12	780 nM
COc1ccc2nccc([C@@H](O)CN3CC[C@H](NCc4nc5c(cc4Cl)SCC(=O)N5)[C@H](F)C3)c2c1	760 nM and 510 nM
O=C(Nc1cccc(-c2cccc(-c3nc4ccc(C(F)(F)F)cc4[nH]3)c2)c1)c1csnn1	240 nM
CN(C)CCCN1CCN(C(=O)c2cccc(-c3noc(C(F)(F)F)n3)c2)CC1	350 nM
COc1ccc(N2CCN(CCCN3CCN(C(=O)c4ccc(/C=C/c5ccc(Cl)c(Cl)c5)cc4)CC3)CC2)c(OC)c1	910 nM
O=C(Nc1cccc(CN2CCN(Cc3ccc(O)cc3)CC2)c1)c1ccc(-c2ccccc2)cc1	250 nM
CCN(CC)CCOc1ccc(C(O)(C#CC(O)(c2ccc(OCCN(CC)CC)cc2)c2ccc([N+](=O)[O-])cc2)c2ccc([N+](=O)[O-])cc2)cc1 (configuration not stated)	1730 nM
COc1ccc(-c2cccc(NC(=O)c3ccc(C#N)cc3)c2)cc1CNC(C)C	810 nM
